Experimental data taken from US10526287B2, “LSD1 inhibitors and uses thereof” (Constellation Pharmaceuticals, Inc., priority 2015, dated 2020).
Structures can show the parent of a compound that is named as a salt.

Biological target: LSD1 (Homo sapiens, UniProt O60341)
Test: Biochemical assay for LSD1 activity (LSD1 demethylase TR-FRET)
Conditions: Table 6; biotinylated H3K4me1 peptide, 50 minutes at room temperature, TR-FRET; read-out: LSD1_Pep_TR-FRET_1.0 (IC50 T50)

With `C/C(=C\c1ccccc1)[C@@H]1C[C@H]1NC1CCN(CCC(=O)O)CC1` (racemic) [Compound 199, 3-(4-(((trans)-2-((E)-1-phenylprop-1-en-2-yl)cyclopropyl)amino)piperidin-1-yl)propanoic Acid Dihydrochloride] as the molecule, how does the IC50 read?
The IC50 was less than 100 nM.

Which IC50 does the source give for `C/C(=C\c1ccccc1)[C@@H]1C[C@H]1NC1CCN(Cc2ccc(C(=O)O)nc2)CC1` (racemic) [Compound 200, 5-((4-(((trans)-2-((E)-1-phenylprop-1-en-2-yl)cyclopropyl)amino)piperidin-1-yl)methyl)picolinic Acid Dihydrochloride] here?
Its IC50 is less than 100 nM.

`C/C(=C\c1ccccc1)[C@@H]1C[C@H]1NC1CCN(CCO)CC1` (racemic) [Compound 201, 2-(4-(((trans)-2-((E)-1-phenylprop-1-en-2-yl)cyclopropyl)amino)piperidin-1-yl)ethan-1-ol Dihydrochloride] was tested. Which IC50 did it give?
Its IC50 is less than 100 nM.

For `C/C(=C\c1ccccc1)[C@@H]1C[C@H]1NC1CCN(Cc2ccc(C(=O)O)cn2)CC1` (racemic) [Compound 203, 6-((4-(((trans)-2-((E)-1-phenylprop-1-en-2-yl)cyclopropyl)amino)piperidin-1-yl)methyl)nicotinic Acid Dihydrochloride], which IC50 is on record?
The IC50 was less than 100 nM.

How did the IC50 turn out when `C/C(=C\c1ccccc1)[C@@H]1C[C@H]1NC1CCN(CCOCC(=O)O)CC1` (racemic) [Compound 204, 2-(2-(4-(((trans)-2-((E)-1-phenylprop-1-en-2-yl)cyclopropyl)amino)piperidin-1-yl)ethoxy)acetic Acid Dihydrochloride] was run?
The IC50 was greater than 10000 nM.

With `C/C(=C\c1ccccc1)[C@@H]1C[C@H]1NC1CCN(CCNS(C)(=O)=O)CC1` (racemic) [Compound 205, N-(2-(4-(((trans)-2-(E)-1-phenylprop-1-en-2-yl)cyclopropyl)amino)piperidin-1-yl)ethyl)methanesulfonamide Dihydrochloride] as the molecule, how does the IC50 read?
The IC50 was less than 100 nM.

With `C/C(=C\c1ccccc1)[C@@H]1C[C@H]1NC1CCN(CCc2ccc(C(=O)O)cc2)CC1` (racemic) [Compound 206, 4-(2-(4-(((trans)-2-((E)-1-phenylprop-1-en-2-yl)cyclopropyl)amino)piperidin-1-yl)ethyl)benzoic Acid Dihydrochloride] as the molecule, how does the IC50 read?
Its IC50 is 100 to 1000 nM.

`CC/C(=C\c1ccccc1)[C@@H]1C[C@H]1NC1CCC(NCc2cnn(CC(=O)O)c2)CC1` (mixture of isomers) [Compound 210, 2-(4-(((4-(((trans)-2-((E)-1-phenylbut-1-en-2-yl)cyclopropyl)amino)cyclohexyl)amino)methyl)-1H-pyrazol-1-yl)acetic Acid Dihydrochloride] was tested. Which IC50 did it give?
The IC50 was 100 to 1000 nM.

How did the IC50 turn out when `CC/C(=C\c1ccccc1)[C@@H]1C[C@H]1N[C@H]1CC[C@H](N(C)CCC(=O)O)CC1` (racemic) [Compound 212, 3-(methyl((trans)-4-(((trans)-2-((E)-1-phenylbut-1-en-2-yl)cyclopropyl)amino)cyclohexyl)amino)propanoic Acid Dihydrochloride] was run?
Its IC50 is less than 100 nM.

With `CC/C(=C\c1ccccc1)[C@@H]1C[C@H]1N[C@H]1CC[C@@H](N(C)CCC(=O)O)CC1` (racemic) [Compound 213, 3-(methyl((cis)-4-(((trans)-2-((E)-1-phenylbut-1-en-2-yl)cyclopropyl)amino)cyclohexyl)amino)propanoic Acid Dihydrochloride] as the molecule, how does the IC50 read?
Its IC50 is 100 to 1000 nM.

How did the IC50 turn out when `CC/C(=C\c1ccccc1)[C@@H]1C[C@H]1N[C@H]1CC[C@H](NCc2ccc(C(=O)O)cc2)CC1` (racemic) [Compound 218, 4-((((trans)-4-(((trans)-2-((E)-1-phenylbut-1-en-2-yl)cyclopropyl)amino)cyclohexyl)amino)methyl)benzoic Acid Dihydrochloride] was run?
Its IC50 is less than 100 nM.

For `CC/C(=C\c1ccccc1)[C@@H]1C[C@H]1N[C@H]1CC[C@H](NCC2(C(=O)O)CC2)CC1` (racemic) [Compound 223, 1-((((trans)-4-(((trans)-2-((E)-1-phenylbut-1-en-2-yl)cyclopropyl)amino)cyclohexyl)amino)methyl)cyclopropane-1-carboxylic Acid], which IC50 is on record?
The IC50 was less than 100 nM.

Which IC50 does the source give for `CC/C(=C\c1ccccc1)[C@@H]1C[C@H]1NC1CCC(NCc2ccc(C(=O)O)nc2)CC1` (mixture of isomers) [Compound 224, 5-((((trans)-4-(((trans)-2-((E)-1-phenylbut-1-en-2-yl)cyclopropyl)amino)cyclohexyl)amino)methyl)picolinic acid] here?
The IC50 was less than 100 nM.

Same assay, conditions: Table 7; biotinylated H3K4me1 peptide, 50 minutes at room temperature, TR-FRET; read-out: LSD1_Pep_TR-FRET_1.0 (IC50 T50)

`CC/C(=C\c1ccccc1)[C@@H]1C[C@H]1NC1CC2(CCN(CCC(=O)O)CC2)C1` (racemic) [Compound 225, 3-(2-(((trans)-2-((E)-1-phenylbut-1-en-2-yl)cyclopropyl)amino)-7-azaspiro[3.5]nonan-7-yl)propanoic Acid Bis Trifluoroacetate] was tested. Which IC50 did it give?
Its IC50 is less than 100 nM.

`CC/C(=C\c1ccccc1)[C@@H]1C[C@H]1NC1CC2(C1)CN(Cc1ccc(C(=O)O)cc1)C2` (racemic) [Compound 226, 4-((6-(((trans)-2-((E)-1-phenylbut-en-2-yl)cyclopropyl)amino)-2-azaspiro[3.3]heptan-2-yl)methyl)benzoic acid bis trifluoroacetate] was tested. Which IC50 did it give?
Its IC50 is less than 100 nM.

With `CC/C(=C\c1ccccc1)[C@@H]1C[C@H]1NC1CC2(CCN(Cc3ccc(C(=O)O)cc3)CC2)C1` (racemic) [Compound 227, 4-((2-(((trans)-2-((E)-1-phenylbut-1-en-2-yl)cyclopropyl)amino)-7-azaspiro[3.5]nonan-7-yl)methyl)benzoic acid dihydrochloride] as the molecule, how does the IC50 read?
The IC50 was less than 100 nM.

With `CC/C(=C\c1ccccc1)[C@@H]1C[C@H]1NC1CC2(CCN(CC(C)(C)C(=O)O)CC2)C1` (racemic) [Compound 228, 2,2-dimethyl-3-(2-(((trans)-2-(E)-1-phenylbut-1-en-2-yl)cyclopropyl)amino)-7-azaspiro[3.5]nonan-7-yl)propanoic Acid Bis Trifluoroacetate] as the molecule, how does the IC50 read?
Its IC50 is less than 100 nM.

Which IC50 does the source give for `CC/C(=C\c1ccccc1)[C@@H]1C[C@H]1NC1CC2(C1)CN(CC(C)(C)C(=O)O)C2` (racemic) [Compound 229] here?
Its IC50 is less than 100 nM.

How did the IC50 turn out when `CC/C(=C\c1ccccc1)[C@@H]1C[C@H]1NC1CC2(C1)CN(CCC(=O)O)C2` (racemic) [Compound 230] was run?
The IC50 was less than 100 nM.

`CC/C(=C\c1ccccc1)[C@@H]1C[C@H]1NC1CC2(C1)CN(Cc1ccc(C(=O)O)nc1)C2` (racemic) [Compound 231] was tested. Which IC50 did it give?
The IC50 was less than 100 nM.

Which IC50 does the source give for `CC/C(=C\c1ccccc1)[C@@H]1C[C@H]1NC[C@H]1CC[C@H](NCC(C)(C)C(=O)O)CC1` (racemic) [Compound 232] here?
Its IC50 is 100 to 1000 nM.

For `CC/C(=C\c1ccccc1)[C@@H]1C[C@H]1NC[C@H]1C[C@H](NCC(C)(C)C(=O)O)C1` (racemic) [Compound 233], which IC50 is on record?
The IC50 was less than 100 nM.

Which IC50 does the source give for `CC/C(=C\c1ccccc1)[C@@H]1C[C@H]1NCC1(C)CN(Cc2ccc(C(=O)O)cc2)C1` (racemic) [Compound 235] here?
The IC50 was less than 100 nM.

For `CC/C(=C\c1ccccc1)[C@@H]1C[C@H]1NC[C@H]1C[C@H](NCc2ccc(C(=O)O)cc2)C1` (racemic) [Compound 236], which IC50 is on record?
The IC50 was less than 100 nM.

Which IC50 does the source give for `CC/C(=C\c1ccccc1)[C@@H]1C[C@H]1NC[C@H]1C[C@H](N)C1` (racemic) [Compound 239] here?
The IC50 was less than 100 nM.

`CC/C(=C\c1ccccc1)[C@@H]1C[C@H]1NCCC(C)(C)N` (racemic) [Compound 240] was tested. Which IC50 did it give?
The IC50 was less than 100 nM.

How did the IC50 turn out when `CC/C(=C\c1ccccc1)[C@@H]1C[C@H]1NCCC1CN(Cc2ccc(C(=O)O)cc2)C1` (racemic) [Compound 241] was run?
Its IC50 is less than 100 nM.

For `CC/C(=C\c1ccccc1)[C@@H]1C[C@H]1NCc1cnn(C2CNC2)c1` (racemic) [Compound 242], which IC50 is on record?
The IC50 was less than 100 nM.
